Data set [1] addresses T1, Cyclin-dependent kinase 2 (Homo sapiens, UniProt P24941). Description: Inhibition of CDK2 phosphorylation in HEK293T cells at 100 uM after 24 hrs by Western blot analysis relative to control. In kind it is cell-based. Conditions: HEK-293T. For orientation: In western blotting, separated proteins are transferred to a membrane and probed.
The test system of data set [2] is Vero. Description: Inhibition of cyclin E phosphorylation in African green monkey Vero cells at 100 uM after 24 hrs by Western blot analysis relative to control. The class given is cell-based. Particulars: Chlorocebus sabaeus.
The target in data set [3] is T2, Cyclin-dependent kinase 2/cyclin E1 (Homo sapiens) (UniProt P24864+P24941). Description: Inhibition of CDK2/Cyclin E in HEK293T cells assessed as reduction of hyperphosphorylated pRB expression at 100 uM after 24 hrs by Western blot analysis relative to control. Conditions: HEK-293T. The class given is cell-based.
Data set [4] concerns HEp-2. The experiment in a line: Cytotoxicity against human Hep2 cells assessed as reduction of cell viability after 24 to 72 hrs by CellTiter-Glo luminescent assay. The class given is functional, cell-based.
For data set [5], the system named is HEK-293T. The experiment in a line: Cytotoxicity against HEK293T cells assessed as reduction of cell viability after 24 to 72 hrs by CellTiter-Glo luminescent assay. In kind it is functional, cell-based. Conditions: Homo sapiens. A general note: Cellular ATP, detected with luciferase, serves as a proxy for viable cell number.
Data set [6] has as its target T1, Cyclin-dependent kinase 2. The experiment in a line: Binding affinity to CDK2 allosteric site (unknown origin).
The test system of data set [7] is Vero. The experiment in a line: Inhibition of CDK2 phosphorylation in African green monkey Vero cells at 100 uM after 24 hrs by Western blot analysis relative to control. The class given is cell-based. Conditions: Chlorocebus sabaeus.
The subject of data set [8] is HEp-2. The experiment in a line: Cytotoxicity against human Hep2 cells assessed as reduction of cell viability at 80 to 100 uM by CellTiter-Glo luminescent assay. In kind it is functional, cell-based. Particulars: TDE = time-dependent effect.
For data set [9], the target named is T1, Cyclin-dependent kinase 2. Description: Inhibition of CDK2 phosphorylation in human Hep2 cells at 100 uM after 24 hrs by Western blot analysis relative to control. In kind it is cell-based. Particulars: HEp-2.
The test system of data set [10] is Vero. Description: Cytotoxicity against African green monkey Vero cells assessed as reduction of cell viability at 80 to 100 uM by CellTiter-Glo luminescent assay. The class given is cell-based. Particulars: chlorocebus sabaeus, TDE = time-dependent effect.
The subject of data set [11] is Vero. The experiment in a line: Inhibition of CDK2/Cyclin E in African green monkey Vero cells assessed as reduction of hyperphosphorylated pRB expression at 100 uM after 24 hrs by Western blot analysis relative to control. The class given is cell-based. Particulars: Chlorocebus sabaeus.
In data set [12] the test system is HEK-293T. The experiment in a line: Cytotoxicity against HEK293T cells assessed as reduction of cell viability at 80 to 100 uM by CellTiter-Glo luminescent assay. In kind it is functional, cell-based. Conditions: Homo sapiens, TDE = time-dependent effect.
For data set [13], the target named is T2, Cyclin-dependent kinase 2/cyclin E1 (Homo sapiens). The experiment in a line: Inhibition of CDK2/Cyclin E in HEK293T cells assessed as reduction of EGF-stimulated E2F pathway after 24 hrs by dual-Glo luciferase reporter gene assay relative to control. In kind it is cell-based. Conditions: HEK-293T. Background: In a reporter assay the amount or activity of a reporter protein is the signal.

Data set [14] concerns Vero. The experiment in a line: Cytotoxicity against African green monkey Vero cells assessed as reduction of cell viability after 24 to 72 hrs by CellTiter-Glo luminescent assay. In kind it is cell-based. Conditions: chlorocebus sabaeus.
Data set [15] deals with T2, Cyclin-dependent kinase 2/cyclin E1 (Homo sapiens). Description: Inhibition of CDK2/Cyclin E in human Hep2 cells assessed as reduction of hyperphosphorylated pRB expression at 100 uM after 24 hrs by Western blot analysis relative to control. The class given is cell-based. Conditions: HEp-2.
For data set [16], the target named is G1/S-specific cyclin-E1 (Homo sapiens) (UniProt P24864). The experiment in a line: Inhibition of cyclin E phosphorylation in HEK293T cells at 100 uM after 24 hrs by Western blot analysis relative to control. Conditions: HEK-293T. In kind it is cell-based.
Sequence of G1/S-specific cyclin-E1 (Homo sapiens) (P24864 whole entry): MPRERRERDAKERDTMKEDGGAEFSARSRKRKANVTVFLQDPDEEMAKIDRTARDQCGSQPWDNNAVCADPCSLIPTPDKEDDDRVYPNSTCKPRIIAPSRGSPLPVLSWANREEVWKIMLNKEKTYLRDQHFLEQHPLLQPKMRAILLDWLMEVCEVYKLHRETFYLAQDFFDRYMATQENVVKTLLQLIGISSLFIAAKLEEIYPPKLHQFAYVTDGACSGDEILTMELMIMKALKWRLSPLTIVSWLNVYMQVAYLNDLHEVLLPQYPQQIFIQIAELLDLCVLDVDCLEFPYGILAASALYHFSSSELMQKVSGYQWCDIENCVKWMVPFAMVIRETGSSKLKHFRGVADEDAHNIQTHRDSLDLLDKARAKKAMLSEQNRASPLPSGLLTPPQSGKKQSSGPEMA
Data set [17] shares this target. The experiment in a line: Inhibition of cyclin E phosphorylation in human Hep2 cells at 100 uM after 24 hrs by Western blot analysis relative to control. In kind it is cell-based. Particulars: HEp-2.

Each structure is given as a SMILES string. pIC50: −log10 of the molar value. Calls of active or inactive are those of the source. The calls are words filed in the database; no cut-off is given here.

In general, pIC50 refers to the IC50 on a negative log10 scale, so that one unit is a factor of ten. Regarding `Cc1[nH]c2c(c1C1(C)NC3=C(C(=O)CC(c4ccccc4)C3)C1=O)C(=O)CC(c1ccccc1)C2` (configuration not stated), the inhibition entry in data set [1], in data set [2], in data set [3], in [7], in data set [9] and in data set [11] was “Active” in each case. Moreover, the inhibition result in data set [15], in [16] and in [17] was “Active” in each case. Besides, the Activity result in data set [4] was “Dose-dependent effect”; in [5] it was “Dose-dependent effect”; in data set [8] it was “tde”; in data set [10], “tde”; in data set [12], “tde”; in data set [14], “Dose-dependent effect”. Further, in data set [6], the negative-log IC50 (pIC50) is < 4.04. Besides, the inhibition entry in data set [13] is “Dose-dependent effect”.
